Measurements published in US9284321B2, “Piperazino[1,2-a]indol-1-ones and [1,4]diazepino[1,2-a]indol-1-one” (Hoffmann-La Roche Inc., priority 2012, dated 2016).

How the values were obtained:
[1] = system: human embryonic stem cell derived neural stem cells (NSCs); assay: Neural Stem Cell Proliferation Assay (neurogenesis assay, ATP levels by CellTiterGlo); format: cell-based; settings: 96 h, compound concentration at which 150% activity of control (100%) is reached, NSC proliferation by ATP level after 4 days incubation, dose response 8 μM to 8 nM
In short: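 Read-out is CellTiterGlo ATP luminescence after 4-day culture (37 °C, 5% CO2) of dual-SMAD-derived human ESC NSCs, dosed 4 h post-seeding at 8 μM to 8 nM (11 points, 2-fold). EC150 marks the concentration reaching 150% of the media-only control (0.25% DMSO).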

Structure (SMILES)	melting point [°C]	EC (150% of control) [1] [µM]
Cc1c2n(c3c(-c4cc(F)c(F)c(F)c4)cc(F)cc13)CCNC2=O [Example 159, 8-Fluoro-10-methyl-6-(3,4,5-trifluoro-phenyl)-3,4-dihydro-2H-pyrazino[1,2-a]indol-1-one]	250	0.22
Cc1c2n(c3c(-c4ccc(C(F)(F)F)cc4)cc(C#N)cc13)CCNC2=O [Example 165, 10-Methyl-1-oxo-6-(4-trifluoromethyl-phenyl)-1,2,3,4-tetrahydro-pyrazino[1,2-a]indole-8-carbonitrile]	282	0.018
Cc1c2n(c3c(-c4ccc(C#N)cc4)cc(C#N)cc13)CCNC2=O [Example 166, 6-(4-Cyano-phenyl)-10-methyl-1-oxo-1,2,3,4-tetrahydro-pyrazino[1,2-a]indole-8-carbonitrile]	323	0.028
Cc1c2n(c3c(-c4ccc(OC(F)(F)F)cc4)cc(C#N)cc13)CCNC2=O [Example 170, 10-Methyl-1-oxo-6-(4-trifluoromethoxy-phenyl)-1,2,3,4-tetrahydro-pyrazino[1,2-a]indole-8-carbonitrile]	239	0.014
Cc1c2n(c3c(-c4nccs4)cc(F)cc13)CCNC2=O [Example 171, 8-Fluoro-10-methyl-6-thiazol-2-yl-3,4-dihydro-2H-pyrazino[1,2-a]indol-1-one]	268	0.36
N#Cc1cc(-c2ccc(Cl)c(F)c2)c2c(c1)cc1n2CCNC1=O [Example 172, 6-(4-Chloro-3-fluoro-phenyl)-1-oxo-1,2,3,4-tetrahydro-pyrazino[1,2-a]indole-8-carbonitrile]	309	0.045
N#Cc1cc(-c2ccc(F)cc2F)c2c(c1)cc1n2CCNC1=O [Example 173, 6-(2,4-Difluoro-phenyl)-1-oxo-1,2,3,4-tetrahydro-pyrazino[1,2-a]indole-8-carbonitrile]	292	0.01
N#Cc1cc(-c2ccc(Cl)cc2F)c2c(c1)cc1n2CCNC1=O [Example 174, 6-(4-Chloro-2-fluoro-phenyl)-1-oxo-1,2,3,4-tetrahydro-pyrazino[1,2-a]indole-8-carbonitrile]	278	0.019
N#Cc1cc(-c2ccc(Cl)cc2Cl)c2c(c1)cc1n2CCNC1=O [Example 175, 6-(2,4-Dichloro-phenyl)-1-oxo-1,2,3,4-tetrahydro-pyrazino[1,2-a]indole-8-carbonitrile]	284.5	0.034
N#Cc1ccc(-c2cc(C#N)cc3cc4n(c23)CCNC4=O)cc1 [Example 176, 6-(4-Cyano-phenyl)-1-oxo-1,2,3,4-tetrahydro-pyrazino[1,2-a]indole-8-carbonitrile]	363	0.17
N#Cc1cc(-c2ccnc(F)c2)c2c(c1)cc1n2CCNC1=O [Example 177, 6-(2-Fluoro-pyridin-4-yl)-1-oxo-1,2,3,4-tetrahydro-pyrazino[1,2-a]indole-8-carbonitrile]	289	0.68
Cc1c2n(c3c(-c4ccc(F)cc4F)cc(C#N)cc13)CCNC2=O [Example 179, 6-(2,4-Difluoro-phenyl)-10-methyl-1-oxo-1,2,3,4-tetrahydro-pyrazino[1,2-a]indole-8-carbonitrile]	237	0.013
O=C1NCCn2c1c(C(F)(F)F)c1cc(F)cc(-c3ccc(F)cc3)c12 [Example 181, 8-Fluoro-6-(4-fluoro-phenyl)-10-trifluoromethyl-3,4-dihydro-2H-pyrazino[1,2-a]indol-1-one]	193	0.62
N#Cc1cc(-c2ccc(F)c(F)c2)c2c(c1)c(C(F)(F)F)c1n2CCNC1=O [Example 182, 6-(3,4-Difluoro-phenyl)-1-oxo-10-trifluoromethyl-1,2,3,4-tetrahydro-pyrazino[1,2-a]indole-8-carbonitrile]	217	0.29
Cc1c2n(c3c(-c4nnc(C(F)(F)F)s4)cc(F)cc13)CCNC2=O [Example 184, 8-Fluoro-10-methyl-6-[5-(trifluoromethyl)-1,3,4-thiadiazol-2-yl]-3,4-dihydro-2H-pyrazino[1,2-a]indol-1-one]	227	1.11
Cc1c2n(c3c(-c4ccc(C#N)s4)cc(F)cc13)CCNC2=O [Example 185, 5-(8-Fluoro-10-methyl-1-oxo-3,4-dihydro-2H-pyrazino[1,2-a]indol-6-yl)thiophene-2-carbonitrile]	249	0.11

Now from value to molecule, other results behind:

melting point [°C]	Structure (SMILES)	EC (150% of control) [1] [µM]
239	Cc1c2n(c3c(-c4cccnc4)cc(F)cc13)CCNC2=O [Example 152, 8-Fluoro-10-methyl-6-pyridin-3-yl-3,4-dihydro-2H-pyrazino[1,2-a]indol-1-one]	0.13
205.5	Cc1c2n(c3c(-c4ccc(F)c(F)c4F)cc(Cl)cc13)CCNC2=O [Example 153, 8-Chloro-10-methyl-6-(2,3,4-trifluoro-phenyl)-3,4-dihydro-2H-pyrazino[1,2-a]indol-1-one]	0.029
248	Cc1c2n(c3c(-c4ccc(N(C)C)nc4)cc(Cl)cc13)CCNC2=O [Example 154, 8-Chloro-6-(6-dimethylamino-pyridin-3-yl)-10-methyl-3,4-dihydro-2H-pyrazino[1,2-a]indol-1-one]	0.022
289	Cc1c2n(c3c(-c4cncnc4)cc(F)cc13)CCNC2=O [Example 155, 8-Fluoro-10-methyl-6-pyrimidin-5-yl-3,4-dihydro-2H-pyrazino[1,2-a]indol-1-one]	0.57
271	COc1ncc(-c2cc(F)cc3c(C)c4n(c23)CCNC4=O)cn1 [Example 156, 8-Fluoro-6-(2-methoxy-pyrimidin-5-yl)-10-methyl-3,4-dihydro-2H-pyrazino[1,2-a]indol-1-one]	0.11
310	Cc1c2n(c3c(-c4cnc(N)nc4)cc(F)cc13)CCNC2=O [Example 157, 6-(2-Amino-pyrimidin-5-yl)-8-fluoro-10-methyl-3,4-dihydro-2H-pyrazino[1,2-a]indol-1-one]	0.19
259	Cc1c2n(c3c(-c4ccc(N(C)C)nc4)cc(F)cc13)CCNC2=O [Example 158, 6-(6-Dimethylamino-pyridin-3-yl)-8-fluoro-10-methyl-3,4-dihydro-2H-pyrazino[1,2-a]indol-1-one]	0.012
254	Cc1c2n(c3c(-c4ccc(N)nc4)cc(F)cc13)CCNC2=O [Example 160, 6-(6-Amino-pyridin-3-yl)-8-fluoro-10-methyl-3,4-dihydro-2H-pyrazino[1,2-a]indol-1-one]	0.18
250	Cc1c2n(c3c(-c4ccc(N)nc4)cc(Cl)cc13)CCNC2=O [Example 161, 6-(6-Amino-pyridin-3-yl)-8-chloro-10-methyl-3,4-dihydro-2H-pyrazino[1,2-a]indol-1-one]	0.27
292	Cc1c2n(c3c(-c4ccc(F)cc4)cc(C#N)cc13)CCNC2=O [Example 162, 6-(4-Fluoro-phenyl)-10-methyl-1-oxo-1,2,3,4-tetrahydro-pyrazino[1,2-a]indole-8-carbonitrile]	0.021
298	Cc1c2n(c3c(-c4ccc(Cl)cc4)cc(C#N)cc13)CCNC2=O [Example 163, 6-(4-Chloro-phenyl)-10-methyl-1-oxo-1,2,3,4-tetrahydro-pyrazino[1,2-a]indole-8-carbonitrile]	0.013
243	Cc1c2n(c3c(-c4ccc(F)c(F)c4)cc(C#N)cc13)CCNC2=O [Example 164, 6-(3,4-Difluoro-phenyl)-10-methyl-1-oxo-1,2,3,4-tetrahydro-pyrazino[1,2-a]indole-8-carbonitrile]	0.045
274	Cc1c2n(c3c(-c4ccc(Cl)cc4Cl)cc(C#N)cc13)CCNC2=O [Example 167, 6-(2,4-Dichloro-phenyl)-10-methyl-1-oxo-1,2,3,4-tetrahydro-pyrazino[1,2-a]indole-8-carbonitrile]	0.002
256	Cc1c2n(c3c(-c4ccnc(F)c4)cc(C#N)cc13)CCNC2=O [Example 168, 6-(2-Fluoro-pyridin-4-yl)-10-methyl-1-oxo-1,2,3,4-tetrahydro-pyrazino[1,2-a]indole-8-carbonitrile]	0.064
272	Cc1c2n(c3c(-c4ccc(F)nc4)cc(C#N)cc13)CCNC2=O [Example 169, 6-(6-Fluoro-pyridin-3-yl)-10-methyl-1-oxo-1,2,3,4-tetrahydro-pyrazino[1,2-a]indole-8-carbonitrile]	0.066
260	Cc1c2n(c3c(-c4ccc(Cl)c(F)c4)cc(C#N)cc13)CCNC2=O [Example 178, 6-(4-Chloro-3-fluoro-phenyl)-10-methyl-1-oxo-1,2,3,4-tetrahydro-pyrazino[1,2-a]indole-8-carbonitrile]	0.048
270	Cc1c2n(c3c(-c4ccc(Cl)cc4F)cc(C#N)cc13)CCNC2=O [Example 180, 6-(4-Chloro-2-fluoro-phenyl)-10-methyl-1-oxo-1,2,3,4-tetrahydro-pyrazino[1,2-a]indole-8-carbonitrile]	0.008
185	Cc1c2n(c3c(-c4ccc(Cl)s4)cc(F)cc13)CCNC2=O [Example 183, 6-(5-Chloro-thiophen-2-yl)-8-fluoro-10-methyl-3,4-dihydro-2H-pyrazino[1,2-a]indol-1-one]	0.19
